From US9302999B2, “Substituted triazoles as herbicides” (E. I. DU PONT DE NEMOURS AND COMPANY, priority 2012, dated 2016)

Key:
Type in all cases: in vivo
[1] = system: large crabgrass (Digitaria sanguinalis); test: Test C pre-/postemergence: large crabgrass
Outline: (§1)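 Visual injury scored 0–100 (100 = complete control) against untreated controls after 13–15 greenhouse days. Surfactant-containing solvent formulations applied either to soil after sowing (loam/sand) or over 1- to 4-leaf plants, 2–18 cm tall.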

[2] = system: lambsquarters (Chenopodium album); test: Test C pre-/postemergence: lambsquarters
Outline: as §1

[3] = system: pigweed (Amaranthus retroflexus); test: Test A pre-/postemergence: pigweed
Outline: (§2)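 Injury was scored visually on a 0 (no effect) to 100 (complete control) scale versus untreated controls roughly ten days after treatment in the greenhouse. Compounds, formulated in surfactant-containing non-phytotoxic solvent, went on as soil-directed preemergence spray or postemergence to one- to two-leaf plants 2–10 cm tall.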

[4] = system: foxtail, giant (giant foxtail, Setaria faberii); test: Test C pre-/postemergence: foxtail, giant
Outline: as §1

[5] = system: morningglory (Ipomoea coccinea); test: Test C pre-/postemergence: morningglory
Outline: as §1

corn (Zea mays) = test: Test C pre-/postemergence: corn
Outline: as §1

[6] = system: barnyardgrass (Echinochloa crus-galli); test: Test A pre-/postemergence: barnyardgrass; conditions: for Barnyardgrass plant response rating: Postemergence; for Plant response rating, Barnyardgrass: Preemergence
Outline: as §2

[7] = system: blackgrass (Alopecurus myosuroides); test: Test C pre-/postemergence: blackgrass
Outline: as §1

[8] = system: crabgrass, large (large crabgrass, Digitaria sanguinalis); test: Test A pre-/postemergence: crabgrass, large; conditions: for Crabgrass, Large plant response rating: Postemergence; for Plant response rating, Crabgrass, Large: Preemergence
Outline: as §2

[9] = system: wheat (Triticum aestivum); test: Test A pre-/postemergence: wheat
Outline: as §2

[10] = system: nutsedge, yellow (yellow nutsedge, Cyperus esculentus); test: Test C pre-/postemergence: nutsedge, yellow
Outline: as §1

[11] = Postemergence, 31 g ai/ha, scale 0 to 100 (0 no effect, 100 complete control)
[12] = Postemergence, 62 g ai/ha, scale 0 to 100 (0 no effect, 100 complete control)
[13] = Postemergence, 125 g ai/ha, scale 0 to 100, 0 no effect, 100 complete control
[14] = Postemergence, 250 g ai/ha, scale 0 to 100
[15] = Preemergence, 31 g ai/ha, scale of 0 to 100, 0 is no effect, 100 is complete control
[16] = Preemergence, 62 g ai/ha, scale of 0 to 100, 0 is no effect, 100 is complete control
[17] = Preemergence, 125 g ai/ha, scale 0 to 100, 0 no effect, 100 complete control
[18] = Preemergence, 250 g ai/ha, scale 0 to 100, 0 no effect, 100 complete control
[19] = Postemergence, 125 g ai/ha, 0 to 100 scale, 0 is no effect, 100 is complete control
[20] = Postemergence, 500 g ai/ha, visual rating on 0 to 100 scale (0 no effect, 100 complete control), approximately ten days
[21] = Preemergence, 125 g ai/ha, 0 to 100 scale where 0 is no effect and 100 is complete control
[22] = Preemergence, 500 g ai/ha, 0 to 100 scale (0 no effect, 100 complete control)
[23] = 125 g ai/ha, 0 to 100 scale, 0 is no effect, 100 is complete control
[24] = 500 g ai/ha, visual rating on 0 to 100 scale (0 no effect, 100 complete control), approximately ten days
[25] = 125 g ai/ha, 0 to 100 scale where 0 is no effect and 100 is complete control
[26] = 500 g ai/ha, 0 to 100 scale (0 no effect, 100 complete control)

Cc1nn(-c2ccc(C(F)(F)F)c(F)c2)nc1Oc1ccnc(C(F)(F)F)c1 [Compound 148]
Plant response rating, Crabgrass, Large [1, 11]: 15 | Plant response rating, Crabgrass, Large [1, 12]: 60 | Plant response rating, Crabgrass, Large [1, 13]: 60 | Plant response rating, Crabgrass, Large [1, 14]: 80 | Plant response rating, Crabgrass, Large [1, 15]: 100 | Plant response rating, Crabgrass, Large [1, 16]: 100 | Plant response rating, Crabgrass, Large [1, 17]: 100 | Plant response rating, Crabgrass, Large [1, 18]: 100 | Plant response rating, Lambsquarters [2, 11]: 98 | Plant response rating, Lambsquarters [2, 12]: 98 | Plant response rating, Lambsquarters [2, 13]: 98 | Plant response rating, Lambsquarters [2, 14]: 98 | Plant response rating, Lambsquarters [2, 15]: 15 | Plant response rating, Lambsquarters [2, 16]: 25 | Plant response rating, Lambsquarters [2, 17]: 65 | Plant response rating, Lambsquarters [2, 18]: 85 | Plant response rating, Pigweed [3, 19]: 100 | Pigweed plant response rating [3, 20]: 100 | Plant response rating, Pigweed [3, 21]: 100 | Plant response rating, Pigweed [3, 22]: 100 | Plant response rating, Foxtail, Giant [4, 11]: 10 | Plant response rating, Foxtail, Giant [4, 12]: 35 | Plant response rating, Foxtail, Giant [4, 13]: 35 | Plant response rating, Foxtail, Giant [4, 14]: 75 | Plant response rating, Foxtail, Giant [4, 15]: 98 | Plant response rating, Foxtail, Giant [4, 16]: 100 | Plant response rating, Foxtail, Giant [4, 17]: 100 | Plant response rating, Foxtail, Giant [4, 18]: 100 | Plant response rating, Morningglory [5, 11]: 70 | Plant response rating, Morningglory [5, 12]: 98 | Plant response rating, Morningglory [5, 13]: 98 | Plant response rating, Morningglory [5, 14]: 98 | Plant response rating, Morningglory [5, 15]: 20 | Plant response rating, Morningglory [5, 16]: 20 | Plant response rating, Morningglory [5, 17]: 55 | Plant response rating, Morningglory [5, 18]: 75 | Plant response rating, Corn (corn (Zea mays); [11]): 25 | Plant response rating, Corn (corn (Zea mays); [12]): 30 | Plant response rating, Corn (corn (Zea mays); [13]): 55 | Plant response rating, Corn (corn (Zea mays); [14]): 60 | Plant response rating, Corn (corn (Zea mays); [15]): 5 | Plant response rating, Corn (corn (Zea mays); [16]): 10 | Plant response rating, Corn (corn (Zea mays); [17]): 15 | Plant response rating, Corn (corn (Zea mays); [18]): 45 | Barnyardgrass plant response rating [6, 23]: 80 | Barnyardgrass plant response rating [6, 24]: 90 | Plant response rating, Barnyardgrass [6, 25]: 90 | Plant response rating, Barnyardgrass [6, 26]: 100 | Plant response rating, Blackgrass [7, 11]: 40 | Plant response rating, Blackgrass [7, 12]: 50 | Plant response rating, Blackgrass [7, 13]: 70 | Plant response rating, Blackgrass [7, 14]: 80 | Plant response rating, Blackgrass [7, 15]: 60 | Plant response rating, Blackgrass [7, 16]: 85 | Plant response rating, Blackgrass [7, 17]: 90 | Plant response rating, Blackgrass [7, 18]: 90 | Crabgrass, Large plant response rating [8, 23]: 80 | Crabgrass, Large plant response rating [8, 24]: 80 | Plant response rating, Crabgrass, Large [8, 25]: 100 | Plant response rating, Crabgrass, Large [8, 26]: 100 | Plant response rating, Wheat [9, 19]: 20 | Wheat plant response rating [9, 20]: 40 | Plant response rating, Wheat [9, 21]: 30 | Plant response rating, Wheat [9, 22]: 50 | Plant response rating, Nutsedge, Yellow [10, 11]: 10 | Plant response rating, Nutsedge, Yellow [10, 12]: 10 | Plant response rating, Nutsedge, Yellow [10, 13]: 15 | Plant response rating, Nutsedge, Yellow [10, 14]: 15 | Plant response rating, Nutsedge, Yellow [10, 15]: 0 | Plant response rating, Nutsedge, Yellow [10, 16]: 5 | Plant response rating, Nutsedge, Yellow [10, 17]: 5
